pIC50: −log10 of the molar value.
How the values were obtained:
[1] = (§1) Antiproliferative activity against human A431 cells harboring WT EGFR after 72 hrs by MTS assay; assay type: cell-based, A-431; conditions: human, A431 cells harboring WT EGFR
[2] = Selectivity index, ratio of GI50 for human A431 cells harboring WT EGFR to GI50 for human NCI-H1975 cells harboring EGFR T790M/L858R double mutant
[3] = test system: NCI-H1975; experiment: Antiproliferative activity against human NCI-H1975 cells harboring EGFR T790M/L858R double mutant after 72 hrs by MTS assay; assay type: functional, cell-based; conditions: Homo sapiens, NCI-H1975, 72 h
[4] = test system: A-431; experiment: as §1; assay type: cell-based; conditions: Homo sapiens, A-431, 72 h
[5] = test system: PC-9; experiment: Antiproliferative activity against human PC9 cells harboring EGFR mutant after 72 hrs by MTS assay; assay type: functional, cell-based; conditions: PC-9, 72 h
[6] = Drug level in human liver microsomes treated with N-(2-((2-(Dimethylamino)ethyl)(methyl)amino)-4-methoxy-5-((4-(1-methyl-1H-pyrrolo[3,2-b]pyridin-3-yl)pyrimidin-2-yl)amino)phenyl)acrylamide by LC-MS/MS analysis; assay type: ADME, Microsome
[7] = target: Epidermal growth factor receptor (Homo sapiens, UniProt P00533); experiment: Inhibition of recombinant human N-terminal GST-tagged EGFR (696-end residues) expressed in baculovirus expression system using Srctide as substrate by fluorescence assay
Sequence of Epidermal growth factor receptor (Homo sapiens, UniProt P00533) (P00533 whole entry): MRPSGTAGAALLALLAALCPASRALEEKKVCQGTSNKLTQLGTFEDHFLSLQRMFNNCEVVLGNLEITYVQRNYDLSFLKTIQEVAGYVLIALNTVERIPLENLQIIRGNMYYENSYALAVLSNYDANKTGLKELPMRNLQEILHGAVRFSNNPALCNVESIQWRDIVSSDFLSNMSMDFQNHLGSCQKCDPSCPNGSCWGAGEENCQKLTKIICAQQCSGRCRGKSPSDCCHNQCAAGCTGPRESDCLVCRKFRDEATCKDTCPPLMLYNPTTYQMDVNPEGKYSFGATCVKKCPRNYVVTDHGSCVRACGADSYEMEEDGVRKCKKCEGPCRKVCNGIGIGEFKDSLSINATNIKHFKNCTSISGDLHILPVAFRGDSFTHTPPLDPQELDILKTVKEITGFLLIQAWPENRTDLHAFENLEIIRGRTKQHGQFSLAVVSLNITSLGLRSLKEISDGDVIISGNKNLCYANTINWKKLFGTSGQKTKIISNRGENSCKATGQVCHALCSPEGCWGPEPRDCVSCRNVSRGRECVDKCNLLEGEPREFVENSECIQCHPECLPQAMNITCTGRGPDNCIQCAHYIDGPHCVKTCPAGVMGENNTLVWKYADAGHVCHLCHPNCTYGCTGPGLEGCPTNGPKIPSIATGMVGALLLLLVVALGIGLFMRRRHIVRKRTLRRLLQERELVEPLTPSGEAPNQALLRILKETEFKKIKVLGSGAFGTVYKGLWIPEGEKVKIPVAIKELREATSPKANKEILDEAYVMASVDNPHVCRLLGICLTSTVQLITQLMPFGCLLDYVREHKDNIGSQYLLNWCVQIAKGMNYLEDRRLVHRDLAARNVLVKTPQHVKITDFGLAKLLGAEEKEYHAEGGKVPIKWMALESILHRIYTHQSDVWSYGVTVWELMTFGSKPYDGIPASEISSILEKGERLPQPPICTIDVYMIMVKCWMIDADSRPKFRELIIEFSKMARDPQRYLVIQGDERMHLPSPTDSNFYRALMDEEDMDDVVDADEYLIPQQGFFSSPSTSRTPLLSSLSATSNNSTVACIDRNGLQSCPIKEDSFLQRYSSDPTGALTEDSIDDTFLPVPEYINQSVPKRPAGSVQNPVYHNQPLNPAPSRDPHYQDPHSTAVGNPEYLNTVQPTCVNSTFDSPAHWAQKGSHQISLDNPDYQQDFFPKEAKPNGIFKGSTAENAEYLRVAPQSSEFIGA

[8] = test system: Calu-3; experiment: Antiproliferative activity against human Calu3 cells harboring WT EGFR after 72 hrs by MTS assay; assay type: cell-based; conditions: Calu-3, 72 h
[9] = test system: HCC827; experiment: Antiproliferative activity against human HCC827 cells harboring EGFR mutant after 72 hrs by MTS assay; assay type: functional, cell-based; conditions: HCC827, 72 h
[10] = species on record: Homo sapiens; experiment: Selectivity index, ratio of IC50 for recombinant human N-terminal GST-tagged EGFR (696-end residues) expressed in baculovirus expression system to IC50 for recombinant human N-terminal GST-tagged EGFR T790M/L858R double mutant (696-end residues)
[11] = target: Epidermal growth factor receptor (Homo sapiens, UniProt P00533, L858R/T790M); experiment: Inhibition of recombinant human N-terminal GST-tagged EGFR T790M/L858R double mutant (696-end residues) by fluorescence assay
Sequence of Epidermal growth factor receptor (Homo sapiens, UniProt P00533, L858R/T790M) (P00533 25-1210 T790M/L858R limits assumed): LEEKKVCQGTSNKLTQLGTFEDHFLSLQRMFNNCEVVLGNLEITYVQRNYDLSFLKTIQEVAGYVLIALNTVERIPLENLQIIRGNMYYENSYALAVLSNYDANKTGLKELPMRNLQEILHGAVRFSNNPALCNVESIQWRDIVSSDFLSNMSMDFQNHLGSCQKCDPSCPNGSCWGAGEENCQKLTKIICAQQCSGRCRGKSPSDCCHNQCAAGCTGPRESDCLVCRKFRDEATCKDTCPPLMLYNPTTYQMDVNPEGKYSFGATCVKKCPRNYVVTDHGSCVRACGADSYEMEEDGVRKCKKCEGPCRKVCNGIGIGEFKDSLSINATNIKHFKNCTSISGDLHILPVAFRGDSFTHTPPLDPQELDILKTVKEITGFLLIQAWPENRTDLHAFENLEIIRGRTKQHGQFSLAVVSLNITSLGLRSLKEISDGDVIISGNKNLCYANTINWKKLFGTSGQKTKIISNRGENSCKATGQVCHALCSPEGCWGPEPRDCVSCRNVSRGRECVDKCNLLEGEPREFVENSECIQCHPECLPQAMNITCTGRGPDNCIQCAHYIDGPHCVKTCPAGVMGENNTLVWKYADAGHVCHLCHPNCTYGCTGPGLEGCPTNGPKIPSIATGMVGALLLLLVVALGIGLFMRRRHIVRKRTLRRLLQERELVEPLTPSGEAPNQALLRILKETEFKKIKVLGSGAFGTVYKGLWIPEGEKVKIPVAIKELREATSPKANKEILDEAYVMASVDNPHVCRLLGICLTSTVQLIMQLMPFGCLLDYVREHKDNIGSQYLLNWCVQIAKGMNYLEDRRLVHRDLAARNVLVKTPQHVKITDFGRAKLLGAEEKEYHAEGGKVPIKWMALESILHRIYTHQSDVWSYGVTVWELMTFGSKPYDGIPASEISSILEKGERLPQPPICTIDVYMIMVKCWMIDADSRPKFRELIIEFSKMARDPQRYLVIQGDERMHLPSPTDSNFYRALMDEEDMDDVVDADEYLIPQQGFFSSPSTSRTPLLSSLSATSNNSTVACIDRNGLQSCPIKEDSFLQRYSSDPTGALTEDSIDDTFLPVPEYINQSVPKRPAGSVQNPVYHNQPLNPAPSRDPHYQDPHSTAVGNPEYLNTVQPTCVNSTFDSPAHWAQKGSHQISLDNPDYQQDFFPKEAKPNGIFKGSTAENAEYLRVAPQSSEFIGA

[12] = target: Epidermal growth factor receptor (Homo sapiens, UniProt P00533, L858R); experiment: Inhibition of recombinant human GST-tagged EGFR L858R mutant expressed in baculovirus expression system by fluorescence assay
Sequence of Epidermal growth factor receptor (Homo sapiens, UniProt P00533, L858R) (P00533 25-1210 L858R limits assumed): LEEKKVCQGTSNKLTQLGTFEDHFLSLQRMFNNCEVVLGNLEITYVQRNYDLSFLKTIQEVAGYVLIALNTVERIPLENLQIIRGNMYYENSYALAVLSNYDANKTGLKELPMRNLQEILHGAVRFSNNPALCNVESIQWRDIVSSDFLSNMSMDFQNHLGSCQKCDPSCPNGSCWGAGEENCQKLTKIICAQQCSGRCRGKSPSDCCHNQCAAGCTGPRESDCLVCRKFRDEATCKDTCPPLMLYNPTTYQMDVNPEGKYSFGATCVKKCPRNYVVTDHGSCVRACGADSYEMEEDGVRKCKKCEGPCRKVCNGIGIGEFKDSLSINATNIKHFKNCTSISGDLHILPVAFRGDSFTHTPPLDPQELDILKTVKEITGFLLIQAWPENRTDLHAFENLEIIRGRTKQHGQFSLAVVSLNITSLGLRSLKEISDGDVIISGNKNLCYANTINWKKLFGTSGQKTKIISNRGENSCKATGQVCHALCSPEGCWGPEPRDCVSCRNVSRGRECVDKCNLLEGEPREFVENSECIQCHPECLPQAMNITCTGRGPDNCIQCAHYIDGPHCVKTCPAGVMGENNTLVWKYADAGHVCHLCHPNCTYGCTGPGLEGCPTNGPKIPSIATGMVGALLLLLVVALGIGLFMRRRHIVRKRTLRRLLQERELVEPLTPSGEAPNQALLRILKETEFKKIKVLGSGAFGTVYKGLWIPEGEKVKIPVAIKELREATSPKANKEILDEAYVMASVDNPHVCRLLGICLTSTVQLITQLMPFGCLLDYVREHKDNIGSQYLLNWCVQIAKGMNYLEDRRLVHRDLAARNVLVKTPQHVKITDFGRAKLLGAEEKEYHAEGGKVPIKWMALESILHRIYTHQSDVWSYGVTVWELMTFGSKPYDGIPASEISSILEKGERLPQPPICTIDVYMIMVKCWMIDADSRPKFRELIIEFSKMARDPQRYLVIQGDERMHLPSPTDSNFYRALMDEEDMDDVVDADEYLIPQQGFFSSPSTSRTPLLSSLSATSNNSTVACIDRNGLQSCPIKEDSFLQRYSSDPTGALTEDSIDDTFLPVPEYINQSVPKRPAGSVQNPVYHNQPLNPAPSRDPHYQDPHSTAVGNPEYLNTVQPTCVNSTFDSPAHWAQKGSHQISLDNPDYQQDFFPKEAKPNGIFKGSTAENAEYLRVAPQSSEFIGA

[13] = test system: Calu-6; experiment: Antiproliferative activity against human Calu6 cells harboring WT EGFR after 72 hrs by MTS assay; assay type: cell-based; conditions: Calu-6, 72 h

Row | SMILES | GI50 [3] [nM] | GI50 at 72 h [1] [nM] | RatioGI50 [2] | other results
1 | C=CC(=O)Nc1cc(Nc2nccc(-c3nn(C)c4ccsc34)n2)c(OC(F)F)cc1N1CCN(C)CC1 | 296 | 1130 | 3.8 | 
2 | C=CC(=O)Nc1cc(Nc2nccc(-c3noc4ccccc34)n2)c(OC)cc1N(C)CCN(C)C | 7.3 | 110 | 15.1 | 
3 | C=CC(=O)Nc1cc(Nc2nccc(-c3cn(C)c4cccnc34)n2)c(OC)cc1N(C)CCNC |  |  |  | pIC50 [4]: 5.46; pIC50 [5]: 6.48; Drug metabolism [6]: Metabolite_Detected; pIC50 [7]: 3.56; pIC50 [8]: < 5.00; pIC50 [9]: 7.38; Ratio IC50 [10]: 42; pIC50 [11]: 5.18; pIC50 [12]: 4.92; pIC50 [13]: < 5.00; pIC50 [3]: 6.57
4 | C=CC(=O)Nc1cc(Nc2nccc(-c3cn(C)c4cccnc34)n2)c(OC(F)F)cc1N(C)CCN(C)C | 6.7 | 296 | 44.1 | 
5 | C=CC(=O)Nc1cc(Nc2nccc(-c3noc4ccccc34)n2)c(OC(F)F)cc1N1CCN(C)CC1 | 49 | 1720 | 35.1 | 

The next lines start with results.

Row | GI50 [3] [nM] | SMILES | GI50 at 72 h [1] [nM] | RatioGI50 [2] | other results
6 | 184 | C=CC(=O)Nc1cc(Nc2nccc(-c3cn(C)c4cccnc34)n2)c(OC(F)F)cc1N1CCC[C@H]1CN(C)C | 724 | 3.9 | 
7 | 168 | C=CC(=O)Nc1cc(Nc2nccc(-c3noc4ccccc34)n2)c(OC)cc1N1CCN(C)CC1 | 728 | 4.3 | 
8 | 10.7 | C=CC(=O)Nc1cc(Nc2nccc(-c3nn(C)c4ccsc34)n2)c(OC)cc1N(C)CCN(C)C | 209 | 19.5 | 
9 | 6.5 | C=CC(=O)Nc1cc(Nc2nccc(-c3nn(C)c4ccsc34)n2)c(OC(F)F)cc1N(C)CCN(C)C | 85.8 | 13.2 | 

Source: ChEMBL document CHEMBL4382217 (Bioorg Med Chem, 2018)
